# Experiments:
# [1] = system: murine leukemia (L1210) cells; assay: In vitro antiproliferative assay, L1210 cells; type: cell-based; settings: Mus musculus
# Source text: In Table 1 we report the in vitro antiproliferative activity of 2-(3′,4′,5′-trimethoxyanilino)-4,5,6,7-tetrahydrothieno[2,3-c]pyridine derivatives 3a–3j and the related 4,5,6,7-tetrahydrobenzo[b]thiophenes 3k–3p against a panel of three cell lines, which were derived from different cancer types, including murine leukemia (L1210), human T-lymphoblastoid leukemia (CEM), and human cervix carcinoma (HeLa) cells.
# (§1) Murine leukemia L1210, human T-lymphocyte leukemia CEM, human cervix carcinoma (HeLa), and human chronic myelogenous leukemia K562 cells (3–5 × 10^4 cells) and a serial (5-fold) dilution of the test compounds were added to a 96-well microtiter plate. The cells were incubated for 72 h at 37 °C in a humidified 5% CO2 atmosphere. At the end of the incubation period, the cells were counted in a Coulter Counter (Coulter Electronics Ltd., Harpenden Herts, United Kingdom). The IC50 (50% inhibitory concentration) was defined as the concentration of compound that inhibited cell proliferation by 50%. The IC50 values represent the average (± standard deviation) of three independent experiments. Human peripheral blood mononuclear cells (PBMC) were obtained from healthy donors by centrifugation with Ficoll-Paque Plus (GE Healthcare Bio-Sciences AB, Uppsala).
# Bovine brain tubulin = assay: Inhibition of tubulin polymerization (turbidimetric assembly); type: biochemical; settings: tubulin at 10 μM, 20 min incubation; read-out: Tubulin assembly IC50 ± SD
# Procedure: (§2) Bovine brain tubulin was purified as described previously. To evaluate the effect of the compounds on tubulin assembly in vitro [59], varying concentrations were preincubated with 10 μM tubulin in 0.8 M glutamate buffer at 30 °C and then cooled to 0 °C. After addition of GTP, the mixtures were transferred to 0 °C cuvettes in a recording spectrophotometer and warmed to 30 °C, and the assembly of tubulin was observed turbidimetrically. […] The ability of the test compounds to inhibit colchicine binding to tubulin was measured as described earlier, except that the reaction mixtures contained 1 μM tubulin, 5 μM of [^3H]colchicine, and test compounds 3a or 3b.
# [2] = system: tubulin (colchicine site); assay: Inhibition of [3H]colchicine binding to tubulin; parameters: species or system Bovine; settings: tubulin 1 μM, colchicine 5 μM, compound 5 μM
# Procedure: as §2
# [3] = system: human T-lymphoblastoid leukemia (CEM) cells; assay: In vitro antiproliferative assay, CEM cells; type: cell-based; settings: CCRF-CEM; human T-lymphocyte CEM, 72 h, cell count; mean ± SE
# Procedure: as §1, with “The IC50 (50% inhibitory concentration) was defined as the concentration of compound that inhibited cell proliferation by 50%.” left out
# [4] = system: human cervix carcinoma (HeLa) cells; assay: In vitro antiproliferative assay, HeLa cells; type: cell-based; settings: human cervix carcinoma HeLa, 72 h, cell count; mean ± SE
# Procedure: as §1, with “The IC50 (50% inhibitory concentration) was defined as the concentration of compound that inhibited cell proliferation by 50%.” left out
# [5] = murine leukemia L1210, 72 h, cell count, mean ± SE
SMILES,"IC50 ([1]; L1210, 72 h) [µM]",IC50 (Bovine brain tubulin) [µM],Colchicine binding % ± SD (inhibition of [3H]colchicine binding) [2] [%],"IC50 [1, 5] [µM]",IC50 [3] [µM],IC50 [4] [µM],melting point [°C]
"COc1ccc(/C=C\c2cc(OC)c(OC)c(OC)c2)cc1O [CA-4, combretastatin A-4, reference compound]",0.0028 ± 0.0011,[…],98 ± 0.9,–,–,–,–
"CCOC(=O)N1CCc2c(sc(NC(=O)c3cccs3)c2C#N)C1 [Compound 2b, reference compound]",–,–,–,6 ± 0.3,3.7 ± 1.2,41 ± 27,–
"COC(=O)c1c(Nc2cc(OC)c(OC)c(OC)c2)sc2c1CCN(C(=O)OC)C2 [Compound 3c, Dimethyl 2-((3,4,5-trimethoxyphenyl)amino)-4,5-dihydrothieno[2,3-c]pyridine-3,6(7H)-dicarboxylate]",–,–,–,17 ± 5,16 ± 4,23 ± 10,140 to 141
"CCOC(=O)N1CCc2c(sc(Nc3cc(OC)c(OC)c(OC)c3)c2C(=O)OC)C1 [Compound 3d, 6-Ethyl 3-methyl 2-((3,4,5-trimethoxyphenyl)amino)-4,5-dihydrothieno[2,3-c]pyridine-3,6(7H)-dicarboxylate]",–,–,–,15 ± 2,12 ± 4,16 ± 3,76 to 78
"COC(=O)c1c(Nc2cc(OC)c(OC)c(OC)c2)sc2c1CCN(C(C)=O)C2 [Compound 3e, Methyl 6-acetyl-2-((3,4,5-trimethoxyphenyl)amino)-4,5,6,7-tetrahydrothieno[2,3-c]pyridine-3-carboxylate]",–,–,–,26 ± 2,43 ± 12,48 ± 17,90 to 91
"CCOC(=O)c1c(Nc2cc(OC)c(OC)c(OC)c2)sc2c1CCN(C(=O)OC)C2 [Compound 3f, 3-Ethyl 6-methyl 2-((3,4,5-trimethoxyphenyl)amino)-4,5-dihydrothieno[2,3-c]pyridine-3,6(7H)-dicarboxylate]",–,–,–,22 ± 4,22 ± 8,67 ± 20,128 to 130
"CCOC(=O)c1c(Nc2cc(OC)c(OC)c(OC)c2)sc2c1CCN(C(=O)OCC)C2 [Compound 3g, Diethyl 2-((3,4,5-trimethoxyphenyl)amino)-4,5-dihydrothieno[2,3-c]pyridine-3,6(7H)-dicarboxylate]",–,–,–,19,19 ± 1,19 ± 4,67 to 69
"CCOC(=O)c1c(Nc2cc(OC)c(OC)c(OC)c2)sc2c1CCN(C(C)=O)C2 [Compound 3h, Ethyl 6-acetyl-2-((3,4,5-trimethoxyphenyl)amino)-4,5,6,7-tetrahydrothieno[2,3-c]pyridine-3-carboxylate]",–,–,–,25 ± 3,34 ± 9,24 ± 3,93 to 95
"COC(=O)N1CCc2c(sc(Nc3cc(OC)c(OC)c(OC)c3)c2C(=O)OC(C)(C)C)C1 [Compound 3i, 3-tert-butyl 6-methyl 2-((3,4,5-trimethoxyphenyl)amino)-4,5-dihydrothieno[2,3-c]pyridine-3,6(7H)-dicarboxylate]",–,–,–,18 ± 3,20 ± 2,14 ± 1,50 to 52
"CCOC(=O)N1CCc2c(sc(Nc3cc(OC)c(OC)c(OC)c3)c2C(=O)OC(C)(C)C)C1 [Compound 3j, 3-tert-butyl 6-ethyl 2-((3,4,5-trimethoxyphenyl)amino)-4,5-dihydrothieno[2,3-c]pyridine-3,6(7H)-dicarboxylate]",–,–,–,19 ± 3,19 ± 2,20 ± 4,60 to 62
"COc1cc(Nc2sc3c(c2C#N)CCC(C)C3)cc(OC)c1OC (centres unmarked) [Compound 3k, 6. -Methyl-2-((3,4,5-trimethoxyphenyl)amino)-4,5,6,7-tetrahydrobenzo[b]thiophene-3-carbonitrile]",–,–,–,> 250,> 250,202 ± 25,112 to 114
"COc1cc(Nc2sc3c(c2C#N)CCC(c2ccccc2)C3)cc(OC)c1OC (centres unmarked) [Compound 3l, 6. -Phenyl-2-((3,4,5-trimethoxyphenyl)amino)-4,5,6,7-tetrahydrobenzo[b]thiophene-3-carbonitrile]",–,–,–,92 ± 29,58 ± 53,124 ± 8,169 to 170
"COC(=O)c1c(Nc2cc(OC)c(OC)c(OC)c2)sc2c1CCC(C)C2 (centres unmarked) [Compound 3m, Methyl 6-methyl-2-((3,4,5-trimethoxyphenyl)amino)-4,5,6,7-tetrahydrobenzo[b]thiophene-3-carboxylate]",–,–,–,82 ± 13,45 ± 17,11 ± 6,127 to 129
"COC(=O)c1c(Nc2cc(OC)c(OC)c(OC)c2)sc2c1CCC(c1ccccc1)C2 (centres unmarked) [Compound 3n, Methyl 6-phenyl-2-((3,4,5-trimethoxyphenyl)amino)-4,5,6,7-tetrahydrobenzo[b]thiophene-3-carboxylate]",–,–,–,101 ± 9,102 ± 50,48 ± 6,147 to 148
"CCOC(=O)c1c(Nc2cc(OC)c(OC)c(OC)c2)sc2c1CCC(C)C2 (centres unmarked) [Compound 3o, Ethyl 6-methyl-2-((3,4,5-trimethoxyphenyl)amino)-4,5,6,7-tetrahydrobenzo[b]thiophene-3-carboxylate]",–,–,–,86 ± 41,78 ± 33,66 ± 6,90 to 92
"CCOC(=O)c1c(Nc2cc(OC)c(OC)c(OC)c2)sc2c1CCC(c1ccccc1)C2 (centres unmarked) [Compound 3p, Ethyl 6-phenyl-2-((3,4,5-trimethoxyphenyl)amino)-4,5,6,7-tetrahydrobenzo[b]thiophene-3-carboxylate]",–,–,–,112 ± 1,88 ± 12,169 ± 18,98 to 100
